{"source": "patent EP0393575B1", "about": "“Neoplasia treatment compositions containing antineoplastic agent and side-effect reducing protective agent” (priority 1989, dated 1990)", "key": {"[1]": {"system": "normal BDF₁ mice", "method": "The effect of carbetimer on acute adriamycin toxicity in normal BDF₁ mice was evaluated. Normal BDF₁ mice were treated with carbetimer alone at 1700 mg/kg i.p. with adriamycin alone at 21 mg/kg i.v. or the combination of the two drugs, carbetimer being given half an hour before adriamycin. […] Data are reported in Table I and depicted in Figure 1."}, "[2]": {"system": "normal BDF₁ mice", "method": "The effect of carbetimer on sub-acute adriamycin toxicity in normal BDF₁ mice was evaluated. Normal BDF₁ mice were treated either with adriamycin alone at 21 mg/kg i.v. or with adriamycin at 21 mg/kg i.v. plus carbetimer 500 mg/kg i.v. given concurrently. […]", "remark": "listed apart in the source"}, "[3]": {"system": "normal BDF₁ mice", "method": "The effect of carbetimer on sub-acute adriamycin toxicity in normal BDF₁ mice was evaluated. Normal BDF₁ mice were treated either with adriamycin alone at 21 mg/kg i.v. or with adriamycin at 21 mg/kg i.v. plus carbetimer 250 mg/kg i.v. given concurrently. […] Data are reported in Table III in absolute weights of animals and depicted in Figure 3 in terms of percent of original weights of the animals.", "remark": "listed apart in the source"}, "[4]": {"system": "normal BDF₁ mice", "method": "The effect of carbetimer on sub-acute adriamycin toxicity in normal BDF₁ mice was evaluated. Normal BDF₁ mice were treated either with adriamycin alone at 21 mg/kg i.v. or with adriamycin at 21 mg/kg i.v. plus carbetimer 125 mg/kg i.v. given concurrently. […] Data are reported in Table IV in absolute weights of animals and depicted in Figure 4 in terms of percent of original weights of the animals.", "remark": "listed apart in the source"}, "[5]": {"system": "MIA C51 cell line", "assay": "Trial VI: survival of rats inoculated with tumor cells", "assay_type": "in vivo", "conditions": "Adriamycin 10 mg/kg i.v. Day One Only", "method": "Rats were inoculated with a million cells of MIA C51 cell line. Thereafter, animals were treated with saline control, carbetimer alone at 1700 mg/kg in days 1-5, or adriamycin at 10 mg/kg i.v., or adriamycin 10 mg/kg i.v. plus carbetimer at 1700 mg/kg i.p. Animals treated with the combination of carbetimer and adriamycin remained alive 40 days after treatment. The combination therapy provided greater tumor remission than carbetimer alone or adriamycin alone, indicating two drugs may act in an additive or synergistic manner to cure tumors in tumor-bearing rats. Data are reported in Table VI and depicted in Figure 6."}, "[6]": {"conditions": "lethal dose of adriamycin alone, 21 mg/kg i.v."}, "[7]": {"conditions": "Adriamycin alone 21 mg/kg i.v., Day 6"}}, "note": "Where two headings read alike, the source gives them in different places.", "data": [{"smiles": "COc1cccc2c1C(=O)c1c(O)c3c(c(O)c1C2=O)C[C@@](O)(C(=O)CO)C[C@@H]3O[C@H]1C[C@H](N)[C@H](O)[C@H](C)O1", "note": "[Adriamycin, doxorubicin]", "values": [{"measurement": "mortality", "setting": "[1]; Adriamycin 21 mg/kg i.v., 7 days post-treatment", "result": "all dead"}, {"measurement": "time to death from start of the therapy", "setting": "[1]; [6]", "result": "≤ 8", "unit": "days"}, {"measurement": "mortality", "setting": "[2]; [7]", "result": "all dead"}, {"measurement": "time to death from start of the therapy", "setting": "[2]; [6]", "result": "≤ 8", "unit": "days"}, {"measurement": "mortality", "setting": "[3]; Adriamycin alone 21 mg/kb i.v., Day 6", "result": "all dead"}, {"measurement": "time to death from start of the therapy", "setting": "[3]; [6]", "result": "≤ 8", "unit": "days"}, {"measurement": "mortality", "setting": "[4]; [7]", "result": "all dead"}, {"measurement": "time to death from start of the therapy", "setting": "[4]; [6]", "result": "≤ 10", "unit": "days"}, {"measurement": "% Rats Alive After Treatment", "setting": "[5]; Days 0-8", "result": 100, "unit": "%"}, {"measurement": "% Rats Alive After Treatment", "setting": "[5]; Days 9-10", "result": 100, "unit": "%"}, {"measurement": "% Rats Alive After Treatment", "setting": "[5]; Days 11-26", "result": 100, "unit": "%"}, {"measurement": "% Rats Alive After Treatment", "setting": "[5]; Days 27-29", "result": 80, "unit": "%"}, {"measurement": "% Rats Alive After Treatment", "setting": "[5]; Days 30-32", "result": 0, "unit": "%"}, {"measurement": "% Rats Alive After Treatment", "setting": "[5]; Days 33-40", "result": 0, "unit": "%"}, {"measurement": "% Rats Alive After Treatment", "setting": "[5]; Days 41-43", "result": 0, "unit": "%"}]}]}
